Test results as given in patent publication US9725702B2, “Laccase from ganoderma lucidum capable of enhancing enzymatic degradation of lignocellulolytic biomass” (DANMARKS TEKNISKE UNIVERSITET, priority 2012, dated 2017).
Where two headings read alike, the source gives them in different places. Blank lines part the entries; values can stand above or below the molecule they belong to.

What was measured:
[1] = test system: LacGL1 laccase from Ganoderma lucidum, expressed in Pichia pastoris; format: biochemical
Method: (§1) The laccase activity was measured based on a modified method of Ters et al. (2009). The laccase activity was defined as the amount of the enzyme required to oxidise 1 μmol of ABTS per minute at 25° C., and pH 4.7. The assay mixture contained: 0.1 M citrate-phosphate buffer (255 μL, pH 4.7), ABTS (5 μL, 4 mM (ABTS stock solution)), and pre-diluted laccase (5 μL) that ensured the linear range of Michaelis-Menten kinetics. The oxidation of ABTS was monitored at 420 nm (ε420=36800 M^−1cm^−1) for 2 min. in an Infinite 200 microtiter plate reader (Tecan, Salzburg, Austria). Laccase activity assays on the substrates: hydroquinone (248 nm), 2.6-dimethoxyphenol (470 nm), and guaiacol (436 nm) was done similarly with the substrate concentration as described in Table 2 using the following extinction coefficient values: 17.542 M^−1cm^−1, 35.645 M^−1cm^−1, and 6.400 M^−1cm^−1, respectively (Minussi et al. 2007). The data collection was monitored by the program Tecan i-control version 1.5.14.0 (Tecan, Salzburg, Austria).

[2] = test system: laccase from the crude extract of G. lucidum (Lac_GLCE); format: biochemical, Ganoderma lucidum
Method: as §1

fungal laccase = format: biochemical, Ganoderma lucidum
Method: as §1

[3] = Laccase-cellulase catalyzed hydrolysis of pretreated biomass, glucose release; format: biochemical; conditions: with cellulase 1 or 2, pH 5.1, 50° C., 30 hour, p<0.05
Method: (§2) FIG. 14. A graphical comparison of glucose released over time during hydrolysis of pre-treated barley straw at pH 5.1 and 50° C. by each of commercial enzyme preparations Cellulase 1 (CC2) [A]; or Cellulase 2 [B], either alone, or in combination with a laccase enzyme; the tested laccases being respectively LacGL1 and GLlac1 (LacJooSS; Q9HG17) derived from G. lucidum; and laccases derived from Agaricus bisporus (Sigma 40452), Pleurotus ostreatus (Sigma 75117) and, Trametes versicolor (Sigma 51639).
(§3) The commercial fungal laccases were purchased as lyophilized protein samples from Sigma Aldrich. A solution of each of the above 5 laccases was prepared in a citric buffer containing 20% of glycerol (pH 5.1, 100 mM).
(§4) Two different commercially available cellulase enzyme preparations used in the comparative study were “Cellulase 1” and “Cellulase 2”, which were tested in combination with each of the laccases listed above.
(§5) The three different types of pretreated biomass used in the comparative study were sugarcane bagasse, barley straw and wheat straw. The source and pre-treatment of the sugarcane bagasse by steam explosion was as set out in Example 9. […] The composition of the dry and the pretreated biomass were determined according to the US National Renewable Energy Laboratory (NREL) procedures (Sluiter et al, 2010).
(§6) The laccase-cellulase catalyzed hydrolysis of the pretreated biomass samples to release glucose was performed as follows: Hydrolysis of 5% (w/v) samples of pretreated sugarcane bagasse, barley straw, and wheat straw biomass were assayed using an Enzyme/Substrate (E/S) ratio of 0.064% w/w for laccases and of 0.4% w/w for each commercial cellulase preparation in each hydrolysis reaction. The E/S dosage was based on the total protein concentration used, as determined using Pierce BCA (BiCinchoninic Acid) protein assay kit microplate procedure according to manufacturer's instruction (Thermo Fisher Scientific, Rockford, US). […]
(§7) Laccase and cellulase-mediated hydrolysis of the 3 biomass forms, measured as glucose release, are shown graphically in FIGS. 13, 14 and 15. […]

[4] = as above; format: biochemical; conditions: with cellulase 1 or 2, pH 5.1, 50° C., 30 hour, p<0.05; remark: listed apart in the source
Method: as §2, with “13.” for “14.”, “STEX-SCB” for “pre-treated barley straw”
as §3, §4, §5, §6, §7

[5] = as above; format: biochemical; conditions: with cellulase 1 or 2, pH 5.1, 50° C., 30 hour, p<0.05; remark: listed apart in the source
Method: as §2, with “15.” for “14.”, “wheaty” for “barley”
as §3, §4, §5, §6, §7

[6] = cited from earlier work; for Km: ABTS, expressed in Pichia pastoris (Sun et al., 2012)
[7] = Michaelis constant (Km) of laccase for ABTS, Hanes-Wolf plot; format: biochemical; conditions: substrate ABTS

Molecule: O[C@H](CS)[C@H](O)CS (racemic) [Dithiothreitol]
Inhibition ([1]; 0.5 mM): 100% | Inhibition ([2]; 0.5 mM): 100% | Inhibition (fungal laccase; 0.5 mM): 100%

Molecule: O=C(O)CN(CCN(CC(=O)O)CC(=O)O)CC(=O)O [EDTA]
Inhibition [1]: 16% | Inhibition [2]: 30% | Inhibition (fungal laccase): 16-30%

Inhibition ([1]; 0.0001 mM): 8% | Inhibition ([1]; 0.0005 mM): 13% | Inhibition ([1]; 0.001 mM): 19% | Inhibition ([1]; 0.01 mM): 22% | Inhibition ([1]; 0.1 mM): 46% | Inhibition ([2]; 0.0001 mM): 23% | Inhibition ([2]; 0.0005 mM): 24% | Inhibition ([2]; 0.001 mM): 28% | Inhibition ([2]; 0.01 mM): 38% | Inhibition ([2]; 0.1 mM): 56% | Inhibition (fungal laccase; 0.1 mM): 46-56%
Molecule: [F-].[Na+] [Sodium fluoride]

glucose release compared to the other tested laccases [3]: significantly enhanced | glucose release compared to the other tested laccases [4]: significantly enhanced | glucose release compared to the other tested laccases [5]: significantly enhanced
B1: GLlac1: Laccase from Ganoderma lucidum strain 7071-9 (UniProt Q9HG17, SEQ ID NO: 29), expressed in Pichia pastoris (protein, listed as Ganoderma lucidum)
chain: MVKFQSLLSCVTLLFAASAHAGIGPKADLTISNANIAPDGYTRAAVVVNGVFPGPLITGNKGDRFQLNVIDQLTNHTMLKTTSIHWHGFFQKGTNWADGPAFINQCPIASGHSFLYDFQVPDQAGTFWYHSHLSTQYCDGLRGPFVVYDPKDPLKGLYDVDNDSTVITLSDWYHVAARLGPSFPLGSDSTLINGLGRSTTNATAGLAVINVTQGKRYRFRLVSLSCDPNYTFSIDGHDMSVIEADGIATQPVTANAIQIFSAQRYSFVLTANQTIGNYWIRANPSFGNIGFTNGINSAILRYSGADPIEPTTAQQTTQNLLNEVDLHPFVAKQTPGRATQGGTDVAINMVFNFNGSNFFINNASFTPPTVPVLLQILSGAQAAQDLLPSGSVYTLPINKSIELTFPATVNAPGAPHPFHLHGHSFAVVRSAGSTEYNYNNPVWRDVVSTGTPAAGDNVTIRFQTDNPGPWFLHCHIDFHLEAGFAVVFAEDTADTSLANHVPQAWSDLCPTYDALSADDH
Km [6]: 995 µM | Km ([6]; listed as GILCC1): 996 µM | pH optimum ([6]; literature): 2.6

B2: Ganoderma lucidum CBS229.93 laccase: Native laccase secreted by Ganoderma lucidum CBS229.93, about 62.5 kDa (protein, listed as Ganoderma lucidum)
chain: MAKFQSLLSCVTLLFAASAYAGIGPKTDLTISNADVAPDGYTRAAVVVNGVFPAPLITGNKGDRFQLNVIDQMTNHTMLKSTSIHWHGFFQKGTNWADGPAFINQCPISSGHSFLYDFQVPDQAGTFWYHSHLSTQYCDGLRGPFVVYDPKDPLKKLYDIDDDSTVITLTDWYHVAARLGPRFPLGSDSTLINGLGRSTTNVTADLAVINVTQGKRYRFRLVSLSCDPNYTFSIDDHNMTVIEADGIETQPVTVNAIQIFSAQRYSFVLTANQTIDNYWIRANPNFGNVGFTDGINSAILRYAGADPVEPTTSQQTTQNLLNEVDLHPFVPKRTPGQPTQGGVDTAINMVFNFNGSNFFINNASFVPPTVPVLLQILSGAQAAQDLLPSGSVYTLPVNKSIELTFPATANAPGAPHPFHLHGHAFAVVRSAGSTVYNYDNPVWRDVVSTGTPAAGDNVTIRFQTDNPGPWFLHCHIDFHLEAGFAVVFAEDPTDTSLANPVPKAWSDLCPTYDALSVDDQ
Km ([7]; pH 5): 107 µM | Km ([7]; laccase expressed in Ganoderma lucidum CBS229.93 (native)): 107 µM
